Patent publication US5198439A, “Angiotension II antagonizing pyridine derivatives” (Imperial Chemical Industries PLC, priority 1990, dated 1993)

Experiments:
AII receptors = target: T1, AII receptors (Cavia porcellus, UniProt Q9WV26); test: Test A: displacement of radiolabelled AII binding to guinea pig adrenal gland cell surface membranes; settings: read-out: IC50 (concentration for 50% displacement of radiolabelled AII binding)
T1 construct: the source of cell surface membranes is the guinea pig adrenal gland; from tissue; host or cells: guinea pig adrenal gland, cell surface membrane fraction
T1 sequence (Q9WV26 1-359): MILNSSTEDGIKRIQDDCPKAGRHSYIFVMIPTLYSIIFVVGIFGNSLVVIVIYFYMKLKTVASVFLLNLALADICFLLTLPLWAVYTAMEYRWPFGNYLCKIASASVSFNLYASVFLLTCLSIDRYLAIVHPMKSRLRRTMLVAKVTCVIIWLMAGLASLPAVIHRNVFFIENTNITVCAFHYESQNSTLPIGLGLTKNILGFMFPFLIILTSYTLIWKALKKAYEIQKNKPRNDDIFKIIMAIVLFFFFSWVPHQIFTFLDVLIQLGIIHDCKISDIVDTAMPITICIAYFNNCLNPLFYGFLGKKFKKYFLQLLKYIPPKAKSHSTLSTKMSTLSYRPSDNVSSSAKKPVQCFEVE
Description: Test A: This in vitro procedure involves the incubation of the test compound initially at a concentration of 100 micromolar (or less) in a buffered mixture containing fixed concentrations of radiolabelled AII and a cell surface membrane fraction prepared from a suitable angiotensin target tissue. In this test, the source of cell surface membranes is the guinea pig adrenal gland which is well known to respond to AII. Interaction of the radiolabelled AII with its receptors (assessed as radiolabel bound to the particulate membrane fraction following removal of unbound radiolabel by a rapid filtration procedure such as is standard in such studies) is antagonized by compounds which also bind to the membrane receptor sites and the degree of antagonism (observed in the test as displacement of membrane-bound radioactivity) is determined readily by comparing the receptor-bound radioactivity in the presence of the test compound at the specified test concentration with a control value determined in the absence of the test compound. Using this procedure compounds showing at least 50% displacement of radiolabelled AII binding at a concentration of 10^-4 M are retested at lower concentrations to determine their potency. […]

[1] = test system: angiotensin II-induced pressor responses; test: Test C: antagonism of angiotensin II-induced pressor responses in rats; assay type: in vivo; settings: iv, rat, i.v. administration
Description: Test C: This in vivo test involves using terminally-anaesthetised or conscious rats in which an arterial catheter has been implanted under anaesthesia for the measurement of changes in blood pressure. The AII antagonistic effects of the test compound following oral or parenteral administration, are assessed against angiotensin II-induced pressor responses. To ensure that the effect is specific, the effect of the test compound on vasopressin-induced pressor responses may also be determined in the same preparation.

`COC(=O)c1c(OCc2ccc(-c3ccccc3-c3nnn[nH]3)cc2)cc(C)nc1C.Cl` [Example 2, methyl 2,6-dimethyl-4-[(2'-(1H-tetrazol-5-yl)biphenyl-4-yl)methoxy]pyridine-3-carboxylate hydrochloride] was tested, and the IC50 (AII receptors) was 50 nM and the ED50 [1] was 0.1 mg/kg.
